Measured values: ChEMBL document CHEMBL5465560, “Selectivity Literature for EUbOPEN Chemogenomic Library” (2024)

How the values were obtained:
[1] = biological target: Protein arginine N-methyltransferase 1 (Homo sapiens, UniProt Q99873); assay: Selectivity interaction (Methyltransferase screen (Scintillation proximity assays)) EUB0000255b PRMT1
[2] = biological target: Death-associated protein kinase 2 (Homo sapiens) (UniProt Q9UIK4); assay: Selectivity interaction (KinomeScan (DiscoverX)) EUB0000229b DAPK2; conditions: at 10 µM
Sequence of Death-associated protein kinase 2 (Homo sapiens) (Q9UIK4 whole entry, looked up): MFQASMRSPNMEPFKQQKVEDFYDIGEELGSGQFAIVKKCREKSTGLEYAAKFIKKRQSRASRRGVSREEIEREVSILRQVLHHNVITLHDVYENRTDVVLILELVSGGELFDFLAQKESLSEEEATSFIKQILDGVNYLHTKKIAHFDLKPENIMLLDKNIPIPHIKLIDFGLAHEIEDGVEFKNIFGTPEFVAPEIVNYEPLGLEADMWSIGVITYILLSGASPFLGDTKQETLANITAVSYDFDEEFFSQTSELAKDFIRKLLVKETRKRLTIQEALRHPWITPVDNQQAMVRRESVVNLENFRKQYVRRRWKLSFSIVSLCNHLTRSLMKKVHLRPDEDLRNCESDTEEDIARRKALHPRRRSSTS

[3] = biological target: Serine/threonine-protein kinase 32B (Homo sapiens) (UniProt Q9NY57); assay: Selectivity interaction (KinomeScan (DiscoverX)) EUB0000655a STK32B; conditions: at 10 µM
Sequence of Serine/threonine-protein kinase 32B (Homo sapiens) (Q9NY57 whole entry): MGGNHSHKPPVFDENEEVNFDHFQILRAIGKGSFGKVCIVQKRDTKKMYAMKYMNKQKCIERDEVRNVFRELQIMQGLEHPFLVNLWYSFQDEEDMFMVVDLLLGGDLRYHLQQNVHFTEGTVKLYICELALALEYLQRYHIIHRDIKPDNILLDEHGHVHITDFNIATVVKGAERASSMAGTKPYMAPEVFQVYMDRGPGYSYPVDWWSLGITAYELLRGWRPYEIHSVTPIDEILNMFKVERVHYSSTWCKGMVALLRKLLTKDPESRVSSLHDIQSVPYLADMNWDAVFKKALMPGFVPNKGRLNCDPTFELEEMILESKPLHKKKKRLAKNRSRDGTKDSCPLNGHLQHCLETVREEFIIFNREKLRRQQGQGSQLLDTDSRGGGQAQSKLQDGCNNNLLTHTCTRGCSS

[4] = biological target: Tyrosine-protein kinase SYK (Homo sapiens, UniProt P43405); assay: Selectivity interaction (Millipore kinase profiler) EUB0000124b SYK; conditions: at 10 µM
[5] = biological target: T1, Serine/threonine-protein kinase Nek5 (Homo sapiens) (UniProt Q6P3R8); conditions: at 10 µM
T1 sequence (whole entry): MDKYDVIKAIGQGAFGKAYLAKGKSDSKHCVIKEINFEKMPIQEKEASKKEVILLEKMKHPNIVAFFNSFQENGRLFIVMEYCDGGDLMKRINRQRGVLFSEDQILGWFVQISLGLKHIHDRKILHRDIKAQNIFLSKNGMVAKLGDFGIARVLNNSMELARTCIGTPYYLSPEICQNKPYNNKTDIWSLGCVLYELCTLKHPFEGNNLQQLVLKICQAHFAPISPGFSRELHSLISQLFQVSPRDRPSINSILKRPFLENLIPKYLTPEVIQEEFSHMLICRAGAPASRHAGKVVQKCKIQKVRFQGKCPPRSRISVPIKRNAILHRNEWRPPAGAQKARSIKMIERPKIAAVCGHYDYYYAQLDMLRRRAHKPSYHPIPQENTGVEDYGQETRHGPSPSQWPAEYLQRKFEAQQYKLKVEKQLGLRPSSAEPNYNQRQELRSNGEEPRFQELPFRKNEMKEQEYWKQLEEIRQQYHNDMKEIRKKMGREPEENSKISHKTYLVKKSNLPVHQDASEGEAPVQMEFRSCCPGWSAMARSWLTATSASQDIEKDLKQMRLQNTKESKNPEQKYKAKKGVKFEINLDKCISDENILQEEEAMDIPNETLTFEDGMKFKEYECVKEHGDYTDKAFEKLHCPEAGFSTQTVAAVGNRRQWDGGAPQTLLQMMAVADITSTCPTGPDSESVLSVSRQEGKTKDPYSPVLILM

[6] = biological target: Ephrin type-A receptor 7 (Homo sapiens) (UniProt Q15375); assay: Selectivity interaction (ActivX KiNativ screen (kinase selectivity in THP-1 cell lysates)) EUB0000639a EPHA7; format: subcellular; conditions: lysate
Sequence of Ephrin type-A receptor 7 (Homo sapiens) (Q15375 28-998 limits assumed): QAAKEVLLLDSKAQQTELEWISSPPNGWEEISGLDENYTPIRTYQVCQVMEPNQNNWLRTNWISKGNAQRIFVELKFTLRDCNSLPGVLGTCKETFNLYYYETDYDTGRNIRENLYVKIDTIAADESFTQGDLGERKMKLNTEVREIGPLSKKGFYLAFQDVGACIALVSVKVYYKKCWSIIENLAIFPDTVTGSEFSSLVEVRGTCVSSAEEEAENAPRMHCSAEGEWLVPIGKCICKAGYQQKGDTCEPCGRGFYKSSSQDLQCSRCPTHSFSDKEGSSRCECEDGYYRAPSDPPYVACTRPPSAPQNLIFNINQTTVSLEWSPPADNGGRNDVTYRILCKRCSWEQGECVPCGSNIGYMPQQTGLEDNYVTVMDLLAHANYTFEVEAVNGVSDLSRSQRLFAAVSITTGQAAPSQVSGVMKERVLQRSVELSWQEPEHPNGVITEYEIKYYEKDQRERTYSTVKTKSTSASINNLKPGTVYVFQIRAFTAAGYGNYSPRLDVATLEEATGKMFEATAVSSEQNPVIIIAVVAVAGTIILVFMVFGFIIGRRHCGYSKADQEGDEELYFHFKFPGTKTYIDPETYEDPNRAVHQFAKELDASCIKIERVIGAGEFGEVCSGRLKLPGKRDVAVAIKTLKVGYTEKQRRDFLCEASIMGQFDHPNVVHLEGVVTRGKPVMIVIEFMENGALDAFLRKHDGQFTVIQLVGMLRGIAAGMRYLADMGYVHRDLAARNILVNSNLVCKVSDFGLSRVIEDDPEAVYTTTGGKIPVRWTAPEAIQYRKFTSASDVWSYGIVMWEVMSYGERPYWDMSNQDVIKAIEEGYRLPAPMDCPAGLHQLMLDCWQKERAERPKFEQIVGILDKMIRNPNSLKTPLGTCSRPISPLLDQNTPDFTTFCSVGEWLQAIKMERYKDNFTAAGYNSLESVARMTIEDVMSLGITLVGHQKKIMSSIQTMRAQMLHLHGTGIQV

[7] = biological target: T2, Tyrosine-protein kinase JAK3 (Homo sapiens) (UniProt P52333); assay: Selectivity interaction (KinomeScan (DiscoverX)) EUB0000595a JAK3; conditions: at 10 µM
T2 sequence (whole entry): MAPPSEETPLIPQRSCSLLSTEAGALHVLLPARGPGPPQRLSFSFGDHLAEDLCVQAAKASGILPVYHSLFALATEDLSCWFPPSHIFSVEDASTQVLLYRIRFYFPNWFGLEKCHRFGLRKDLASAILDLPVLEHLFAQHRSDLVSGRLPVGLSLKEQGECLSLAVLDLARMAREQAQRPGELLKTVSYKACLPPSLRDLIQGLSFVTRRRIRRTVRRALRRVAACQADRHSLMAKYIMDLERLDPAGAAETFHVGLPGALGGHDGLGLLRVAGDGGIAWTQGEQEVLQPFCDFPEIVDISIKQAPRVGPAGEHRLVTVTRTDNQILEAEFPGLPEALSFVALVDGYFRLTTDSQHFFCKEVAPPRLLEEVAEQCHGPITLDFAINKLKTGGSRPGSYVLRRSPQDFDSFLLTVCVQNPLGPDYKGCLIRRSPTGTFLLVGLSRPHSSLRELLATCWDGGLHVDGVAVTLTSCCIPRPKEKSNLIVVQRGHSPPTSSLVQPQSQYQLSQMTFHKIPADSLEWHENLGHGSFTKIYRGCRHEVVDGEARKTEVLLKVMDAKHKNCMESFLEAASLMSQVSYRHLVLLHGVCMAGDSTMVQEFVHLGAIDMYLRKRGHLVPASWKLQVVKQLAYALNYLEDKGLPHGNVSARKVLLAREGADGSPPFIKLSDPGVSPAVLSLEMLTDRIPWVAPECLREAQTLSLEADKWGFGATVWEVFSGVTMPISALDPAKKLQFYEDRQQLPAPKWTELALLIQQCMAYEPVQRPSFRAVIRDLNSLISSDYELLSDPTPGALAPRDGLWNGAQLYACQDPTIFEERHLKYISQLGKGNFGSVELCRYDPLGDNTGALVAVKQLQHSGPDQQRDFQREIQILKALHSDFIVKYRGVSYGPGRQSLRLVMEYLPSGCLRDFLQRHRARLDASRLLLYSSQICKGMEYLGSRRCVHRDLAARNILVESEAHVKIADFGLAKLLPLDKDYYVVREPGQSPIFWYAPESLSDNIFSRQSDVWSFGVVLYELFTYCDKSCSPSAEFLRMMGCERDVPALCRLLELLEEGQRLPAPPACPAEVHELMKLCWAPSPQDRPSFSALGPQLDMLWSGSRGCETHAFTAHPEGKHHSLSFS

[8] = biological target: Casein kinase I isoform alpha (Homo sapiens, UniProt P48729); assay: Selectivity interaction (ActivX KiNativ screen (ex vivo kinase selectivity in human PBMCs)) EUB0001619a CSNK1A1; format: cell-based; conditions: PBMC, at 1 µM
Sequence of Casein kinase I isoform alpha (P48729 2-337 limits assumed): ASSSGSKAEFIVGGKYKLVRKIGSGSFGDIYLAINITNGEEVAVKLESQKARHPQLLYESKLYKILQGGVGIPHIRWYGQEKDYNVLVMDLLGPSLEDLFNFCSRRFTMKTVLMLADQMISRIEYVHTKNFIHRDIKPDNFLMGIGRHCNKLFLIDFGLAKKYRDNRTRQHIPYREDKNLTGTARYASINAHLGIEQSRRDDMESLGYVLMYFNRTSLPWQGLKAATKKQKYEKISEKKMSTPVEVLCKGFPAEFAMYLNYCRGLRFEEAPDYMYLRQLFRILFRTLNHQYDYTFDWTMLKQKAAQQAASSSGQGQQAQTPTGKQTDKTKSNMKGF

Sequence of Protein arginine N-methyltransferase 1 (Q99873 whole entry, looked up): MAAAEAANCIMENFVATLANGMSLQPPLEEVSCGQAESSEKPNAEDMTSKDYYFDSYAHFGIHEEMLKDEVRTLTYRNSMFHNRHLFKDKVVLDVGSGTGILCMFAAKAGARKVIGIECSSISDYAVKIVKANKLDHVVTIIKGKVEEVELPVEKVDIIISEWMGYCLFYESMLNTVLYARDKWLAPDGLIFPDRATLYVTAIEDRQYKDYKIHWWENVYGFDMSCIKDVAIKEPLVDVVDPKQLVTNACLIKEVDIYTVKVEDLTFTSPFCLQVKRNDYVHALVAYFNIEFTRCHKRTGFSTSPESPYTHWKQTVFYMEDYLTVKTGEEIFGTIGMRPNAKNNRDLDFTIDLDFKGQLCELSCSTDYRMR

COCCN1CCC(c2cc(CN(C)C(=O)c3cccc(Oc4ccccc4)c3)ccn2)CC1
% activity ([1]; at 1 µM): 82% | % activity ([1]; at 10 µM): > 90%

COc1cc(N(C)c2ccnc3ccc(C(F)(F)F)cc23)cc(OC)c1OC
% binding [2]: 96%

CN(C)CCOc1ccc(-c2nc(-c3ccncc3)c(-c3ccc4c(c3)CC/C4=N\O)[nH]2)cc1
% of control [3]: 85%

CC(=O)Nc1cccc(-n2c(=O)n(C3CC3)c(=O)c3c(Nc4ccc(I)cc4F)n(C)c(=O)c(C)c32)c1
% of control [4]: 74%

Cc1cc([C@@H](C)Nc2ccccc2C(=O)O)c2nc(N3CCOCC3)cc(=O)n2c1 [AZD-6482]
% of control [5]: 100%

CC[C@@H]1[C@H](F)C(=O)N[C@@H]1COc1nccc2cc(C(N)=O)c(OC)cc12 [ZIMLOVISERTIB]
% of inhibition ([6]; at 0.01 µM): -8.6% | % of inhibition ([6]; at 0.04 µM): 21.7% | % of inhibition ([6]; at 0.2 µM): 20.8% | % of inhibition ([6]; at 1 µM): -6.5% | % of inhibition ([6]; at 5 µM): 20.6%

COCC(=O)NC/C=C/c1ccc2ncnc(Nc3ccc(Oc4ccc(C)nc4)c(C)c3)c2c1 [CP-724714]
% of control [7]: 100%

N#Cc1cccc(-c2c[nH]c3ncnc(N4CCOCC4)c23)c1
% of inhibition [8]: -7%
